Assay results published in patent publication US12157745B2, “Heterocyclic systems and pharmaceutical compositions thereof” (University of Sharjah, priority 2018, dated 2024).

What was measured:
Assay in all cases: Full dose-response, survival of cancer cell line (SRB assay)
Type in all cases: cell-based
MCF7 = conditions: Homo sapiens, breast cancer, 48 hours of drug treatment, average of three individual experiments
Source text: (§1) Dulbecco's Modified Eagles Medium (DMEM), RPMI 1640 medium and propidium iodide (PI) were purchased from Sigma Aldrich (Darmstadt, Germany). For western blot, the antibodies; c-Myc, p^53, p^21, Bax, Bid, BclxL, GAPDH, caspase-3, caspase-9, p-ATM, p-ATR, p-Chk1, p-Chk2, p-P^53, and p-H2AX along with respective mouse/rabbit secondary antibodies were purchased from Cell Signaling Technology (Danvers, MA, USA). FITC Annexin V Apoptosis kit was purchased from BD Biosciences (New Jersey, USA). All other chemicals and solvents used were of standard analytical grade. The stock solutions of SIMR compounds were made in 100% DMSO and working solutions for treatments never exceeded >1% DMSO. The cell lines were gifted from Radiobiology and Experimental Radio Oncology lab, University Cancer Center, Hamburg University, Hamburg, Germany. F180 and HCT116 cells were cultured in DMEM media while MCF-7 and SKBR3 cells were cultured in RPMI along with 10% FBS and 5% CO2 in a humidified incubator at 37° C. The cells were grown on polystyrene T-75 (75 cm^2) culture flasks and all the experiments were performed at ˜70% cell confluency.
(§2) SRB assay was performed on DU-143 and MCF-7 cells in order to find out the sub-lethal dosage (IC50) of the synthesized compounds based on reported method with minor modifications. Briefly, 1×10^4 cells were seeded in a 96-well plate overnight and were treated with different concentrations of compounds and incubated further for 48 hours. The wells which were devoid of any treatment served as controls. After the treatment time, the plates were incubated with 50% trichloroacetic acid (TCA) at 4° C. for 1 hour. The cells were then washed, dried and exposed to 1% acetic acid for short period. Two hundred microliters of 10 mMtris base solution was then added with 10 min incubation after drying the plates and the OD was read at 492 nm by using a Multiskan™ GO (Thermo Scientific, USA) microplate Spectrophotometer.

HCT116 = conditions: Homo sapiens, HCT-116; colon cancer; 48 hours of drug treatment; average of three individual experiments
Source text: as §1, §2

SKBR3 = conditions: Homo sapiens, SK-BR-3; breast cancer; 48 hours of drug treatment; average of three individual experiments
Source text: as §1, §2

Row | Compound | IC50 (MCF7) [µM] | IC50 (HCT116) [µM] | IC50 (SKBR3) [µM]
1 | CC(=O)Nc1ccc(C2=CSC3=N[C@@H]4c5c(ccc6ccccc56)OC[C@@H]4C(C)(C)N23)cc1 [Compound 1m] | 4.5 | 3.7 | 6.4
2 | COc1ccc(OC)c(C2=CSC3=N[C@@H]4c5c(ccc6ccccc56)OC[C@@H]4C(C)(C)N23)c1 [Compound 1n] | 6.76 | 6.2 | 10.1
3 | CC1=C(c2ccccc2)N2C(=N[C@@H]3c4c(ccc5ccccc45)OC[C@@H]3C2(C)C)S1 [Compound 1q] | 11.8 | 4.7 | 9.4
4 | CC1=C(c2ccc(Br)cc2)N2C(=N[C@@H]3c4c(ccc5ccccc45)OC[C@@H]3C2(C)C)S1 [Compound 1r] | 8.14 | 7.2 | 7.6
5 | CC1=C(c2ccc(Cl)c(Cl)c2)N2C(=N[C@H]3c4cc5c6c(c4OC[C@@H]3C2(C)C)CCCN6CCC5)S1 [Compound 1x] | 0.38 | 2.3 | 1.4
6 | COc1cccc2c1C(=O)c1c(O)c3c(c(O)c1C2=O)C[C@@](O)(C(=O)CO)C[C@@H]3O[C@H]1C[C@H](N)[C@H](O)[C@H](C)O1 [Doxorubicin, reference compound] | 0.058 | 0.096 | 0.25
